This passage reports cytotoxicity results from ChEMBL document CHEMBL3507680, “University of Dundee, Gates Library screen for HepG2 cell viability”.

A short description of the data set: Human HepG2 cell viability assay in 384 well format. It is filed as toxicity, cell-based. Particulars: HepG2 cells, read-out: Inhibition. Set-up: dose 125 nL, time 70.5 hour; concentration not given beside the values.

For `O=S(=O)(C1CC1)N1CCC2(COCc3cnc(NCC4CC4)nc32)C1` (configuration not stated), the cytotoxicity at 70.5 h was -6.1%.

Regarding `Cc1noc(C)c1CN1C[C@@H]2COC[C@]2(COc2ccc(C#N)cn2)C1`, the cytotoxicity at 70.5 h is -2.55%.

As to `COC[C@@]12CCO[C@@H]1CCN(C(=O)Cc1ccccc1C)C2`, the cytotoxicity at 70.5 h was -3.36%.

For `COC[C@@]12CCO[C@@H]1CCN(C(=O)CCc1ccccc1Cl)C2`, the cytotoxicity at 70.5 h was -3.89%.

As for `Cc1nn(Cn2ccc(C(=O)N3CCC(C)CC3)n2)c(C)c1Cl`, the cytotoxicity at 70.5 h is -13.2%.

On to `CC(C(=O)O)n1nc(C(F)(F)F)c(Cl)c1C1CC1` (configuration not stated), for which the cytotoxicity at 70.5 h was determined as 5.37%.

Consider `Cc1ccc(OCc2ccc(C(=O)O)s2)cc1C`, for which the cytotoxicity at 70.5 h is -6.36%.

Regarding `CCn1cc(Cn2cc(Cl)c(N)n2)c(C)n1`, the cytotoxicity at 70.5 h is -2.35%.

Consider `COc1cc(C(F)(F)F)sc1C(=O)O`, for which the cytotoxicity at 70.5 h is -6.37%.

Regarding `O=C(O)Cn1nc(C2CC2)c2c(-c3cccs3)ccnc21`, the cytotoxicity at 70.5 h was found to be 25.1%.

In the case of `CCNC(=O)Cc1n[nH]c(-c2cncc(Br)c2)n1`, the cytotoxicity at 70.5 h is 32%.

Turning to `CCC(=O)Nc1c(C)nn(COc2cccc(F)c2)c1C`, the cytotoxicity at 70.5 h was -2.04%.

For the compound `CCS(=O)(=O)Nc1cnn(Cc2cccc(Cl)c2)c1`, the cytotoxicity at 70.5 h was -10.7%.

Turning to `CCn1cc(CN(C)S(=O)(=O)c2ccc(C(C)C)cc2)cn1`, the cytotoxicity at 70.5 h is -6.2%.

As to `CCCNC(=O)c1nn(CC)cc1Cl`, the cytotoxicity at 70.5 h was -3.27%.

Turning to `CSc1ccc(CNc2n[nH]c(C)n2)cc1`, the cytotoxicity at 70.5 h was 44.9%.

On to `Cn1nnc(NCc2ccc(-c3ccc(Br)cc3)o2)n1`, for which the cytotoxicity at 70.5 h is -9.29%.

For `CCn1nnc(NCc2ccc(-c3ccc(Br)cc3)o2)n1`, the cytotoxicity at 70.5 h was -7.12%.

Regarding `CCCn1nnc(NCc2cc(Br)cc(Br)c2OC)n1`, the cytotoxicity at 70.5 h was -9.35%.

Regarding `C=C/C=c1\c(=C/C)oc2c(NCc3ccccc3)ncnc12`, the cytotoxicity at 70.5 h turned out to be 10.6%.

`CCOCCCNc1cc(C)nn2cnnc12`: the cytotoxicity at 70.5 h worked out at 7.54%.

With `C=C/C=c1\c(=C/C)oc2c(NCc3ccccc3)nc(C)nc12`, the cytotoxicity at 70.5 h was found to be 13.2%.

As for `CN1CCc2c1nc1c(c2N)CCC1`, the cytotoxicity at 70.5 h is -7.38%.

`O=C(O)Cn1ccc2c(Cl)cccc21`: the cytotoxicity at 70.5 h was -1.23%.

In the case of `Cc1ccc(NC(=O)c2n[nH]c(-n3cnnc3)n2)cc1`, the cytotoxicity at 70.5 h is -8.15%.

In the case of `Cc1c2ncn(CC(=O)NC(C)C)c(=O)c2nn1C`, the cytotoxicity at 70.5 h was 3.83%.

For the compound `O=c1c2cc3c(cc2nnn1Cc1cccc(F)c1)OCCO3`, the cytotoxicity at 70.5 h was -9.5%.

Take `Cc1ccccc1Cn1nnc2cc3c(cc2c1=O)OCCO3`: the cytotoxicity at 70.5 h was -9.38%.

In the case of `CCn1nc(C)c(NC(=O)C(C)C)c1C`, the cytotoxicity at 70.5 h was -2.76%.

Regarding `Cc1nn(C)c2c(=O)n(Cc3ccccc3)nnc12`, the cytotoxicity at 70.5 h was -13.5%.

On to `Cc1nn(C)c2c(NCc3ccccn3)ncnc12`, for which the cytotoxicity at 70.5 h was -2.17%.

For the compound `Cc1nc(NC2CC2)c2c(n1)c(C)nn2C`, the cytotoxicity at 70.5 h is -18.4%.

Consider `Cc1nc(NCc2ccccn2)c2c(n1)c(C)nn2C`, for which the cytotoxicity at 70.5 h stood at 5.97%.

As to `COc1ccc(Nc2nc3c(C)nn(C)c3c(=O)n2C)cc1`, the cytotoxicity at 70.5 h came out at 29.7%.

Regarding `COc1ccc(C)cc1Nc1nc2c(C)nn(C)c2c(=O)n1C`, the cytotoxicity at 70.5 h was -5.48%.

In the case of `COc1ccc(C(C)Nc2nc3c(C)nn(C)c3c(=O)n2C)cc1` (configuration not stated), the cytotoxicity at 70.5 h is -3.89%.

In the case of `CCn1c(NCC2CCCO2)nc2c(C)nn(C)c2c1=O` (configuration not stated), the cytotoxicity at 70.5 h is -7.98%.

For `CCCn1c(N2CCCC2)nc2c(C)nn(C)c2c1=O`, the cytotoxicity at 70.5 h is -6.89%.

Consider `CCCn1c(NCCc2ccccc2)nc2c(C)nn(C)c2c1=O`, for which the cytotoxicity at 70.5 h amounted to 11.6%.

For the compound `Cc1c2ncn(CC(=O)c3ccccc3)c(=O)c2nn1C`, the cytotoxicity at 70.5 h was -3.76%.

For the compound `CNc1[nH]nc(N)c1NC(=O)c1ccccc1`, the cytotoxicity at 70.5 h is -17.7%.

As for `CCn1nc(CNC(C)(C)CO)c(-c2ccccc2)n1`, the cytotoxicity at 70.5 h was -1.62%.

`O=C(Nc1ccccc1)c1n[nH]c(-n2cnnc2)n1`: the cytotoxicity at 70.5 h was -2.23%.

In the case of `CCCN(c1ccccc1C(=O)O)S(=O)(=O)c1ccc2ccccc2c1`, the cytotoxicity at 70.5 h was -6.16%.

On to `CS(=O)(=O)Nc1ccn(Cc2cccc(F)c2)n1`, for which the cytotoxicity at 70.5 h is -6.83%.

On to `CCn1c(SCC(N)=O)nnc1-c1csc2c1CCCC2`, for which the cytotoxicity at 70.5 h amounted to 2.39%.

Turning to `CCS(=O)(=O)Nc1ccn(Cc2c(F)cccc2Cl)n1`, the cytotoxicity at 70.5 h is -9.46%.

`O=S(=O)(c1ccc(F)c(F)c1)n1cc(Cl)cn1`: the cytotoxicity at 70.5 h was -6.91%.

As for `Cc1sc(NC(=O)CCC(=O)O)c(C(N)=O)c1-c1ccc(Cl)cc1Cl`, the cytotoxicity at 70.5 h is -1.16%.

For `CCCNC(=O)NC(C)c1ccccn1` (configuration not stated), the cytotoxicity at 70.5 h is -11.1%.

Consider `CS(=O)(=O)Nc1ccn(Cc2ccc(Br)cc2)n1`, for which the cytotoxicity at 70.5 h is -8.91%.

For `CCCN1CCC(NC(=O)c2csc(C)c2-c2ccc(C)cc2)CC1`, the cytotoxicity at 70.5 h was -0.127%.

On to `Cc1cccc(-n2nnnc2C2(NCc3ccco3)CCCCC2)c1`, for which the cytotoxicity at 70.5 h is -3.38%.

In the case of `Cc1nc(N2CCCC2)ncc1-c1cc(O)nc(N2CCOCC2)n1`, the cytotoxicity at 70.5 h was -4.64%.

Regarding `COc1cc2cc(C(=O)NCC(=O)O)n(C)c2c(OC)c1OC`, the cytotoxicity at 70.5 h came out at 31.9%.

As for `CC(=O)N1CCN([C@@H]2CN(C(=O)c3ccccc3)C[C@H]2O)CC1`, the cytotoxicity at 70.5 h is -5.08%.

Consider `CC(=O)N1CCN([C@@H]2CN(C(=O)c3ccccc3C)C[C@H]2O)CC1`, for which the cytotoxicity at 70.5 h was -3.99%.

Regarding `Cc1ccc(Nc2nccc(C3CCN(C(=O)CO)C3)n2)nc1` (configuration not stated), the cytotoxicity at 70.5 h is -11.2%.

Turning to `CNc1cc(C2CCCN(C(=O)c3ccc(=O)[nH]n3)C2)ccn1` (configuration not stated), the cytotoxicity at 70.5 h was -0.0309%.

Consider `CC(=O)N1CCC(Cc2cnc(-c3c(C)nn(C)c3C)cn2)CC1`, for which the cytotoxicity at 70.5 h was -0.949%.

Take `CN(C)S(=O)(=O)N1CCC(C)(c2ncc(C(N)=O)s2)CC1`: the cytotoxicity at 70.5 h was -5.66%.

On to `c1ccc(CCN2CCCC2c2ccnc(Nc3cnccn3)n2)cc1` (configuration not stated), for which the cytotoxicity at 70.5 h was -3.41%.

With `Cc1cc(O)nc(C2CCCN(CCO)C2)n1` (configuration not stated), the cytotoxicity at 70.5 h is -1.84%.

Consider `c1cc(-c2cnc(C3CCNCC3)cn2)n[nH]1`, for which the cytotoxicity at 70.5 h is 12.8%.

Turning to `Cc1cc(C)nc(N2CCOC(C)(C(=O)N(C)C)C2)n1` (configuration not stated), the cytotoxicity at 70.5 h is -4.59%.

On to `Cc1c(CN2CCCC2(C)C(=O)N2CCOCC2)cnn1C` (configuration not stated), for which the cytotoxicity at 70.5 h was -7.03%.

`Cc1nccc(C2CN(C(=O)c3cncnc3)C2)n1`: the cytotoxicity at 70.5 h was -13.8%.

As to `Cc1cnc(N2CCOC(C(=O)NCc3ccccc3)C2)s1` (configuration not stated), the cytotoxicity at 70.5 h is -15.2%.

In the case of `CCn1ccc2ccnc(CC3CN(C(=O)c4cnco4)C3)c21`, the cytotoxicity at 70.5 h was -6.85%.

For the compound `COCC(=O)NC[C@H]1CC[C@H](c2nnc(-c3cccnc3)o2)CC1`, the cytotoxicity at 70.5 h is -7.6%.

On to `Cc1ccc(C2CN(Cc3cccc4[nH]ccc34)CCO2)nc1` (configuration not stated), for which the cytotoxicity at 70.5 h amounted to 46%.

For the compound `Cc1ccn(CCNC(=O)C2CCN(S(=O)(=O)c3ccc(F)cc3)C2)n1` (configuration not stated), the cytotoxicity at 70.5 h is 8.09%.

As to `CC1(C(=O)NC2CCCC2)CCCN(c2ncccn2)C1` (configuration not stated), the cytotoxicity at 70.5 h came out at 6.47%.

Take `CNc1nc(C2CCN(C(=O)CC3CCCC3)C2)nc2c1CN(C)CC2` (configuration not stated): the cytotoxicity at 70.5 h was found to be 8.17%.

For the compound `CCN1CCCC(O)(c2nc(C)c(CCOc3ccccc3Cl)s2)CC1` (configuration not stated), the cytotoxicity at 70.5 h is -7.73%.

In the case of `CC(=O)N1CCc2nnc(C3CCCCN3CC3CC3)n2CC1` (configuration not stated), the cytotoxicity at 70.5 h was -13%.

For `Cc1noc(C)c1-c1ccnc(C2CCN(S(=O)(=O)N(C)C)CC2)c1`, the cytotoxicity at 70.5 h is -2.76%.

For the compound `CC(=O)N1CCn2c(nnc2C2CCCCN2Cc2ccccc2Cl)C1` (configuration not stated), the cytotoxicity at 70.5 h is -3.34%.

For the compound `COCc1ccc(C(=O)N2CCC(c3cc4nccnc4[nH]3)CC2)cc1`, the cytotoxicity at 70.5 h is -14.3%.

As for `Cc1ccnc(C2CCN(C(=O)CCn3ncc4ccccc43)C2)n1` (configuration not stated), the cytotoxicity at 70.5 h was -8.45%.

As for `Cc1cc(C(=O)NCCc2c(C)nn(C)c2C)nc(N2CCCCC2)n1`, the cytotoxicity at 70.5 h came out at 20.6%.

For the compound `CCOC(=O)c1n[nH]cc1-c1cncn1CCn1nc(C)c(Cl)c1C`, the cytotoxicity at 70.5 h is -5.26%.

As to `CNC(=O)c1cn[nH]c1C1CCN(Cc2cn(C)nc2C)C1` (configuration not stated), the cytotoxicity at 70.5 h is -12.4%.

In the case of `CN1CCOC(C)(C(=O)N2CCN(C3CCCC3)CC2)C1` (configuration not stated), the cytotoxicity at 70.5 h was -11.9%.

Take `CS(=O)(=O)c1cn[nH]c1C1CCCN(C(=O)Cn2cccn2)C1` (configuration not stated): the cytotoxicity at 70.5 h was -9.34%.

For the compound `CN(C)c1cc(C2CCCN(S(=O)(=O)C3CCCC3)C2)ccn1` (configuration not stated), the cytotoxicity at 70.5 h is -7.46%.

With `O=C(Cn1cc(Cl)cn1)N1CCCC(c2ccn[nH]2)C1` (configuration not stated), the cytotoxicity at 70.5 h is -7.33%.

For `Cn1cncc1CN1CCCC1c1cncc(Oc2ccc(Cl)cc2)n1` (configuration not stated), the cytotoxicity at 70.5 h is 8.74%.

Turning to `Cc1nccn1CCC1CCN(C(C)C)CC1`, the cytotoxicity at 70.5 h is -2.75%.

`O=C(c1cc[nH]n1)N1CCC(c2cc(Nc3ccccn3)n[nH]2)CC1`: the cytotoxicity at 70.5 h was -8.04%.

With `Cc1cc(O)nc(C2CCCNC2)n1` (configuration not stated), the cytotoxicity at 70.5 h is -3.99%.

For the compound `COc1ccc(-c2cc(C3CCNCC3)ccn2)cc1`, the cytotoxicity at 70.5 h is -4.77%.

For the compound `O=C(C1CCC1)N1C[C@@H](c2ccsc2)[C@@H]2CN(C3CCCCC3)CC[C@@H]21`, the cytotoxicity at 70.5 h turned out to be 14.8%.

For the compound `CC(=O)N1CCC[C@@H](NCc2cccc(F)c2)[C@@H]1c1ccc(C)s1`, the cytotoxicity at 70.5 h is -6.03%.

Take `CC(=O)N1CCC[C@@H](NCc2c[nH]c3ccccc23)[C@@H]1c1ccc(C)s1`: the cytotoxicity at 70.5 h was -8.53%.

With `CC1Cc2cc(-c3cncn3CC(=O)NC(C)(C)C)ccc2N1C` (configuration not stated), the cytotoxicity at 70.5 h was -7.08%.

Regarding `CCOC(=O)c1n[nH]cc1-c1cncn1CCCn1nc(C)cc1C`, the cytotoxicity at 70.5 h is -5.33%.

Regarding `c1ccc(CCNc2cccc(C3CCCNC3)n2)cc1` (configuration not stated), the cytotoxicity at 70.5 h is 6.58%.

As to `O=C(c1ccnnc1)N1CC[C@]2(C[C@H](Oc3ncccc3F)CO2)C1`, the cytotoxicity at 70.5 h is -5.53%.

For the compound `O=C(Cc1ccccn1)N1CC[C@]2(C[C@@H](Oc3ncccc3F)CO2)C1`, the cytotoxicity at 70.5 h turned out to be 2.46%.

For the compound `COCCN1C[C@@H]2[C@@H](OC)CCN(Cc3cccs3)[C@@H]2C1`, the cytotoxicity at 70.5 h was -1.71%.

For the compound `Cn1cc(CN2CCC3(CCCN3Cc3cccnc3)CC2)cn1`, the cytotoxicity at 70.5 h was -3.83%.
